The record followed here is PMC9030254, “Target Hopping from Protein Kinases to PXR: Identification of Small-Molecule Protein Kinase Inhibitors as Selective Modulators of Pregnane X Receptor from TüKIC Library” (Cells, 2022).

Holding throughout (assay): Kinase profiling
Assay type in all cases: biochemical

One assay concerns the target T1, ERK1 (Homo sapiens, UniProt P27361).
T1 construct: purchased ProQinase (Freiburg, Germany)
How it is done:
(§1) The analysis was performed by ProQinase (Freiburg, Germany).

The target in a further assay is T2, CSF1R (Homo sapiens, UniProt P07333).
T2 construct: purchased ProQinase (Freiburg, Germany)
T2 sequence (P07333 20-972): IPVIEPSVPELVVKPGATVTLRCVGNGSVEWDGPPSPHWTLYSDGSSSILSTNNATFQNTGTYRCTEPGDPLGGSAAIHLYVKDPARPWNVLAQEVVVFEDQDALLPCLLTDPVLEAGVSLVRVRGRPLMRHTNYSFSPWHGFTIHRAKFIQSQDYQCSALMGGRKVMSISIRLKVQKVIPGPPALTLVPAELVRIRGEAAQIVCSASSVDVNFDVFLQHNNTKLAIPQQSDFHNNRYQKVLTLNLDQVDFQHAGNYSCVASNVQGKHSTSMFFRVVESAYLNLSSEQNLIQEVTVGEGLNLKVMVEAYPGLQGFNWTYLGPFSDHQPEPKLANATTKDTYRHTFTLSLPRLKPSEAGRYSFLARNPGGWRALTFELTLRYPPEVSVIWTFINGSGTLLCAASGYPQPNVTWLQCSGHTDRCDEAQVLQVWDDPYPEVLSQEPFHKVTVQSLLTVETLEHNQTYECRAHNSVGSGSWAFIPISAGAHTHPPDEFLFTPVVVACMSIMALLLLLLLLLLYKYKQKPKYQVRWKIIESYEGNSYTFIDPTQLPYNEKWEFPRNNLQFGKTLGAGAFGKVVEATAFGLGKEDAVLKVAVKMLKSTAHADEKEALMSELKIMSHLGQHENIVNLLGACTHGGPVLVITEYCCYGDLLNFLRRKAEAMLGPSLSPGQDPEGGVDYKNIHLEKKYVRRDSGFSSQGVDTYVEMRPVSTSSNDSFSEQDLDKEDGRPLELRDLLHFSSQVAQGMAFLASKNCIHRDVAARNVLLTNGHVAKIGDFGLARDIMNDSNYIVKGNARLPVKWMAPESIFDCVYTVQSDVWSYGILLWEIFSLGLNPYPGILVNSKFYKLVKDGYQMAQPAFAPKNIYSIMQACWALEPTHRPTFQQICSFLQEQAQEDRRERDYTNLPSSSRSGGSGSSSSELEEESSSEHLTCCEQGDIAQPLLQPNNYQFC
How it is done:
as §1

The next assay addresses T3, DYRK4 (Homo sapiens, UniProt Q9NR20).
T3 construct: purchased ProQinase (Freiburg, Germany)
T3 sequence (Q9NR20 1-520): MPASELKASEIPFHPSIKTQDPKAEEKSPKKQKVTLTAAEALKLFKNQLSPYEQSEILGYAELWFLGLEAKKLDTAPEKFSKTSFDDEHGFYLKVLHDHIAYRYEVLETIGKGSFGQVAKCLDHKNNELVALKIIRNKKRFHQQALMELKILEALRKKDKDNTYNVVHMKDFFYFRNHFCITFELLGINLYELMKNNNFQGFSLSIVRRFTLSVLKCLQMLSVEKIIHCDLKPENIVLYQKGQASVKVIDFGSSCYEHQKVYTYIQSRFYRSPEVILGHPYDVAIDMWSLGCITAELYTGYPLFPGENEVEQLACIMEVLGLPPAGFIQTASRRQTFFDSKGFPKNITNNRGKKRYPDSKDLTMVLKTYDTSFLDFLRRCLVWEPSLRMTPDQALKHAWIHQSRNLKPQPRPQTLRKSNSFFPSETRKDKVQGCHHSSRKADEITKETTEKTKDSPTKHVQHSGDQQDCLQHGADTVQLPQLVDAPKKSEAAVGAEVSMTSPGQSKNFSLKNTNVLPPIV
How it is done:
as §1

Another assay addresses T4, PIM3 (Homo sapiens, UniProt Q86V86).
T4 construct: purchased ProQinase (Freiburg, Germany)
How it is done:
as §1

The target in another assay is T5, AuroraA (Homo sapiens, UniProt O14965).
T5 construct: purchased ProQinase (Freiburg, Germany)
T5 sequence (O14965 1-403): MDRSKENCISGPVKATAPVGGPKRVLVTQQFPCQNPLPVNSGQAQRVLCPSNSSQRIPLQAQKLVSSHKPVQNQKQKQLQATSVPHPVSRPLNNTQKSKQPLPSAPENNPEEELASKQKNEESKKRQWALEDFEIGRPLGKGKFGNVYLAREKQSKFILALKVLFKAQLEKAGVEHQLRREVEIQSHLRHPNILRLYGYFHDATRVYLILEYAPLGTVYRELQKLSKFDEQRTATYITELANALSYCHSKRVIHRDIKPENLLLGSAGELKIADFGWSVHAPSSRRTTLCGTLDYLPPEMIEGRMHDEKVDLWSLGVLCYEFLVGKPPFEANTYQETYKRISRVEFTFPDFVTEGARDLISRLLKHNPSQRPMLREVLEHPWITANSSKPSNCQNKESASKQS
On the procedure: as §1

The next assay has as its target T6, CAMK2A (Homo sapiens, UniProt Q9UQM7).
T6 construct: purchased ProQinase (Freiburg, Germany)
On the procedure: as §1

In another assay the target is T7, TYK2 (Homo sapiens, UniProt P29597).
T7 construct: purchased ProQinase (Freiburg, Germany)
T7 sequence (P29597 whole entry): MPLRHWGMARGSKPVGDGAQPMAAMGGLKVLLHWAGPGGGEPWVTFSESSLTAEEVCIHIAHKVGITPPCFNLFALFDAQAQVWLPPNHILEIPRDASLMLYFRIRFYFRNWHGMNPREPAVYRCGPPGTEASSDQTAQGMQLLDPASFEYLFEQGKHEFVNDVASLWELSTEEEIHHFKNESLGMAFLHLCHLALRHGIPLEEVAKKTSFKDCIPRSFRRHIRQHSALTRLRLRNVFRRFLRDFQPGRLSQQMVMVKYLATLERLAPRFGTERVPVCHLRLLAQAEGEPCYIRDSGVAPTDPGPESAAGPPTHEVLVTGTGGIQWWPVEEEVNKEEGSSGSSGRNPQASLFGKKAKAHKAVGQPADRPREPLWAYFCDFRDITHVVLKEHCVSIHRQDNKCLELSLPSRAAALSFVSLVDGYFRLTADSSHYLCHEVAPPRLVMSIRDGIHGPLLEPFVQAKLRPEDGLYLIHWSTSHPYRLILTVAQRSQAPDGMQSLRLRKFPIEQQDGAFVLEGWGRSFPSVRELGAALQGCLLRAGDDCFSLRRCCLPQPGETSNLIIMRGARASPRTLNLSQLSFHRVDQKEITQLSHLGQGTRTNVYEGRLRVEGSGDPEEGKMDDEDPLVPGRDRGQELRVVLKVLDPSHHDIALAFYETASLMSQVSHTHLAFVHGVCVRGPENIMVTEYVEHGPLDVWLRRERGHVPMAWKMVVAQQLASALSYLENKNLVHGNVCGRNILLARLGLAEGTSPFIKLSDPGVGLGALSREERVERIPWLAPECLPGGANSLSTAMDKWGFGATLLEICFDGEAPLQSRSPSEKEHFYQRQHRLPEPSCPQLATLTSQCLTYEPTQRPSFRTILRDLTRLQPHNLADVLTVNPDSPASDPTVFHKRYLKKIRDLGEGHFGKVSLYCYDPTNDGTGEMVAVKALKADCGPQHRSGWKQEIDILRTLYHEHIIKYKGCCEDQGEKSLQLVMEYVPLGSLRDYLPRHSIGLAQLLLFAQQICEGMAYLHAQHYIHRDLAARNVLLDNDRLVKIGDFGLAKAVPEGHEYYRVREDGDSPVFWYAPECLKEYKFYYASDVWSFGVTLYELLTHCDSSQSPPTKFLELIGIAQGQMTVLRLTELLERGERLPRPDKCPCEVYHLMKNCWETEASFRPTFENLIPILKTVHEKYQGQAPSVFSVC
On the procedure:
as §1

A further assay has as its target T8, FLT3 (Homo sapiens, UniProt P36888).
T8 construct: purchased ProQinase (Freiburg, Germany)
T8 sequence (P36888 27-993): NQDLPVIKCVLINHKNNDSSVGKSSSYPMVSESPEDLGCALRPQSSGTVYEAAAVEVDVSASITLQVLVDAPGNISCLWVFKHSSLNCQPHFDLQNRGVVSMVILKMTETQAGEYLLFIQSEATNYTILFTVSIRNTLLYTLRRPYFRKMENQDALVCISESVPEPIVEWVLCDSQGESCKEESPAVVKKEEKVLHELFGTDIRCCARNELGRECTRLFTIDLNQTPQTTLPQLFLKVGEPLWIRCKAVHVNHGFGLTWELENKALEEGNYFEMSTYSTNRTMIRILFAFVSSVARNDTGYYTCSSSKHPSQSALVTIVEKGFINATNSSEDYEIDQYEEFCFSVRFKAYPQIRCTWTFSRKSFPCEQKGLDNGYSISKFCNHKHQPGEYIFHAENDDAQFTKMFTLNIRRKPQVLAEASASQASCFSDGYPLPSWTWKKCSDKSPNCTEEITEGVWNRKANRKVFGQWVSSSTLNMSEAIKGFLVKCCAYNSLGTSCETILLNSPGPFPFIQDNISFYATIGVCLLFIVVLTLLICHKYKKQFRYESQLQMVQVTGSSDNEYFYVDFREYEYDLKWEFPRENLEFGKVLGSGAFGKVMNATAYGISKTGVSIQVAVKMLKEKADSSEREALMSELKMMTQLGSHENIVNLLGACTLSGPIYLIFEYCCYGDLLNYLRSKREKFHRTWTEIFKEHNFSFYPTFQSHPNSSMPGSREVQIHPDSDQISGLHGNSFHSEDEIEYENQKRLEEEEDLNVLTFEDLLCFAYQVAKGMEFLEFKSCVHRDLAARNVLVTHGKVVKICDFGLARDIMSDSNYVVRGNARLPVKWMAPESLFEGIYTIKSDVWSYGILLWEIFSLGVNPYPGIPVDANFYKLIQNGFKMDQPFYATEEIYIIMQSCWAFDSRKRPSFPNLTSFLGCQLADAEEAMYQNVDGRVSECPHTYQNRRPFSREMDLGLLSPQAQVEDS
On the procedure:
as §1

For another assay, the target named is T9, RPS6KA6 (Homo sapiens, UniProt Q9UK32).
T9 construct: purchased ProQinase (Freiburg, Germany)
T9 sequence (Q9UK32 whole entry): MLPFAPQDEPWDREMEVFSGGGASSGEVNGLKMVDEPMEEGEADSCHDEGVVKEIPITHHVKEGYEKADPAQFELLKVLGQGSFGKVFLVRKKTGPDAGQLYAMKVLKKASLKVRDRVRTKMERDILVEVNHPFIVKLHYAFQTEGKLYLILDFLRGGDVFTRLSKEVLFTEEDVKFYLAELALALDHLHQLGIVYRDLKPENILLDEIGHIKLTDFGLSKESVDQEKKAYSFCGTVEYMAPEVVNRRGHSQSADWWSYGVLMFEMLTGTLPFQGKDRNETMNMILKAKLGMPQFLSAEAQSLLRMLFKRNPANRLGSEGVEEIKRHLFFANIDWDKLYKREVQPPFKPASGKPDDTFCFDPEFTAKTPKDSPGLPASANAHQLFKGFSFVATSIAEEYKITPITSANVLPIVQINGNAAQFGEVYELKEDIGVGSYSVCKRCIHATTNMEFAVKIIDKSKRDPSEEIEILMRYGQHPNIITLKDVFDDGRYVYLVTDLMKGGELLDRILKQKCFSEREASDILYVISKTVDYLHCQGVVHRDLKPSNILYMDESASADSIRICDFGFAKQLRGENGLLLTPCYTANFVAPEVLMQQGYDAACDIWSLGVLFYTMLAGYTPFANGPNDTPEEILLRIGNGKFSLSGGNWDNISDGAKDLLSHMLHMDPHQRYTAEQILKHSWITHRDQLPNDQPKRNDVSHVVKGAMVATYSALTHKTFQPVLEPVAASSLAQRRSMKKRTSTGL
On the procedure:
as §1

Another assay has as its target T10, HIPK3 (Homo sapiens, UniProt Q9H422).
T10 construct: purchased ProQinase (Freiburg, Germany)
On the procedure: as §1

T10 sequence (Q9H422 whole entry): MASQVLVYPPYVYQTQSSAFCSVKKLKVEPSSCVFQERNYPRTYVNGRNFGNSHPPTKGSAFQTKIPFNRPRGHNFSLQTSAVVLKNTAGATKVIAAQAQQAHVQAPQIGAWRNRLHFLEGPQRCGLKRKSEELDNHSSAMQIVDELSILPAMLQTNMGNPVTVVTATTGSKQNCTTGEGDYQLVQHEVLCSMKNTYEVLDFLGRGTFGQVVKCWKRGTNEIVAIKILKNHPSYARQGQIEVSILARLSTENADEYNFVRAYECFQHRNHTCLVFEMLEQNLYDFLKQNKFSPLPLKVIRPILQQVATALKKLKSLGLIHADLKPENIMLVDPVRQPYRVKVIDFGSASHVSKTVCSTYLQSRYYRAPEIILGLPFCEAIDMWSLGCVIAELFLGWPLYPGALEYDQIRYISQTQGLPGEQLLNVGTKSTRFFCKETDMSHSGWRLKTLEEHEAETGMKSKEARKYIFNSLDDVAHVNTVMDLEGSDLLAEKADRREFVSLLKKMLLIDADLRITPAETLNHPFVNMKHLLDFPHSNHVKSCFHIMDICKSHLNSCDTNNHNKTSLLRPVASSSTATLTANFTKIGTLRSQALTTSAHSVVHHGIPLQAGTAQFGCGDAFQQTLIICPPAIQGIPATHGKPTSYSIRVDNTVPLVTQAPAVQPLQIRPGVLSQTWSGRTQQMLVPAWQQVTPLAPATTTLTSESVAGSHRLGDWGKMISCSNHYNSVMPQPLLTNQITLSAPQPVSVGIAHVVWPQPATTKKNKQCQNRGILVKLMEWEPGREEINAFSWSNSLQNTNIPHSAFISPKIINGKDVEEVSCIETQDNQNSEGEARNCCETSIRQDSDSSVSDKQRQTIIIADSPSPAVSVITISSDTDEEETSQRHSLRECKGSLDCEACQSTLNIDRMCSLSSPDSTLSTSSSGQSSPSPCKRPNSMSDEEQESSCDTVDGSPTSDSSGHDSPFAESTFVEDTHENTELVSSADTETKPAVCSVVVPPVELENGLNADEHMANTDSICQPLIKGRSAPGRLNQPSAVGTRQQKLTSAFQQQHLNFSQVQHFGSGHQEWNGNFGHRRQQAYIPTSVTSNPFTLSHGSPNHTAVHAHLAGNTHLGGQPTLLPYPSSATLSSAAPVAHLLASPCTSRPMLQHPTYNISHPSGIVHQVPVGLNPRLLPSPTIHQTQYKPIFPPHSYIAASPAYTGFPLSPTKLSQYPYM
T1 sequence (P27361 whole entry): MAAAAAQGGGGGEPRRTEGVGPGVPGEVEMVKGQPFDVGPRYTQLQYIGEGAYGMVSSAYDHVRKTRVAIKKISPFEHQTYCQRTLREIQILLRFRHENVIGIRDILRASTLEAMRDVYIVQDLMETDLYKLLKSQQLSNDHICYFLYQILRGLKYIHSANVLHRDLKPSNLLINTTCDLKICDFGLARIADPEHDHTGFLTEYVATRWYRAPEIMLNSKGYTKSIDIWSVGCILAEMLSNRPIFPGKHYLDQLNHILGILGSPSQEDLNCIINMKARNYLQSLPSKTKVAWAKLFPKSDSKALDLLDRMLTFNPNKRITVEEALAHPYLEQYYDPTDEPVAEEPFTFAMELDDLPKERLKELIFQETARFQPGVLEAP

Take `O=C(Cc1ccccc1)Nc1ccc(F)c(Nc2ccc3c(c2)CCCCC3=O)c1` [Compound 100]: the Residual activity is listed as 99 % of control on ERK1 (1.0E-05 M); 99 % of control at ERK1 (1.0E-06 M); 96 % of control on CSF1R (1.0E-05 M); 100 % of control at CSF1R (1.0E-06 M); 94 % of control on DYRK4 (1.0E-05 M); 98 % of control on DYRK4 (1.0E-06 M). The Residual activity is given as 89 % of control at PIM3 (1.0E-05 M); 90 % of control on PIM3 (1.0E-06 M); 91 % of control on AuroraA (1.0E-05 M); 96 % of control on AuroraA (1.0E-06 M); 94 % of control on CAMK2A (1.0E-05 M); 96 % of control on CAMK2A (1.0E-06 M). Besides, the Residual activity on TYK2 (1.0E-05 M) is reported as 83 % of control; at TYK2 (1.0E-06 M) it was 95 % of control; on FLT3 (1.0E-05 M), 94 % of control; on FLT3 (1.0E-06 M), 101 % of control; on RPS6KA6 (1.0E-05 M) it was 83 % of control; at RPS6KA6 (1.0E-06 M), 90 % of control. Further, the Residual activity on HIPK3 (1.0E-05 M) is on record as 87 % of control; on HIPK3 (1.0E-06 M), 88 % of control.

Take `O=C(Nc1ccc(F)c(Nc2ccc3c(c2)CCCCC3=O)c1)c1cccc(F)c1` [Compound 109]: the Residual activity at ERK1 (1.0E-05 M) is 102 % of control; on ERK1 (1.0E-06 M), 100 % of control; on CSF1R (1.0E-05 M), 94 % of control; at CSF1R (1.0E-06 M), 103 % of control; at DYRK4 (1.0E-05 M) it was 87 % of control; on DYRK4 (1.0E-06 M), 89 % of control. Further, the Residual activity on PIM3 (1.0E-05 M) is listed as 102 % of control; on PIM3 (1.0E-06 M) it was 89 % of control; at AuroraA (1.0E-05 M), 90 % of control; on AuroraA (1.0E-06 M), 93 % of control; on CAMK2A (1.0E-05 M) it was 91 % of control; on CAMK2A (1.0E-06 M), 95 % of control. The Residual activity is listed as 93 % of control on TYK2 (1.0E-05 M); 102 % of control on TYK2 (1.0E-06 M); 91 % of control at FLT3 (1.0E-05 M); 98 % of control on FLT3 (1.0E-06 M); 81 % of control on RPS6KA6 (1.0E-05 M); 88 % of control at RPS6KA6 (1.0E-06 M). Besides, the Residual activity at HIPK3 (1.0E-05 M) is 90 % of control; at HIPK3 (1.0E-06 M), 89 % of control.
